Data on 50 compounds can be found in the supplement of paper PMC6723410.

For assay [1], the system named is GUMC-403. Description: AC50 for reduction of cell viability; higher = less potent. The conditions noted are these: 48 h.
Assay [2] relates to GUMC-403. The assay is described as follows: viability at highest tested concentration (max response) relative to DMSO (% of DMSO control); higher = less cytotoxic. As to conditions: library / dose series: MIPE library, 11-point 1:3 dilution, 48 h. A digest of the protocol:
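Patient-derived GUMC-403 papilloma cells grown by conditional reprogramming were plated at 700/well in 5 μL F + Y medium in 1536-well plates and incubated overnight at 37 °C. They then received 23 nL of MIPE 4.0 compounds by pin tool (11-point 1:3 series) for 48 h. CellTiter-Glo luminescence was read on a ViewLux and normalised with DMSO wells as 100% and empty wells as 0%. The value is viability at the highest tested concentration relative to DMSO control.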

Setting [3] is: library / dose series: MIPE library, 11-point 1:3 dilution.

Turning to `CC[S+](=O)([O-])c1cccc(-c2cc(C(=O)NC3CCN(C)CC3)c(C)c3[nH]c4ncc(C)cc4c23)c1`, the “AC50 for reduction of cell viability” value in assay [1] (setting [3]) turned out to be 4.69 µM. Further, the viability in assay [2] (top concentration 46.1 µM) is 75.8.
Taken in the same sequence, the figures for `CNCC[C@H](Oc1cccc2ccccc12)c1cccs1` were 10.5 µM and 36.
For `C[C@H]1CCC/C=C/C2C[C@H](O)C[C@H]2[C@H](O)/C=C/C(=O)O1` (stereo not given in full) the same measures were 0.0105 µM and 31.1.
Taken in the same sequence, the figures for `Cc1nc2cnc3ccc(C#Cc4cccnc4)cc3c2n1-c1ccc(C(C)(C)C#N)cc1` were 0.0935 µM and 46.6.
As for `CCOc1cc2ncc(C#N)c(Nc3ccc(OCc4ccccn4)c(Cl)c3)c2cc1NC(=O)/C=C/CN(C)C`, in assay [1] (setting [3]), the “AC50 for reduction of cell viability” value turned out to be 0.0743 µM. For the same compound, the viability in assay [2] (top concentration 46.1 µM) amounted to 54.2.
Taken in the same sequence, the figures for `CCc1ccc(OCc2ccccc2C(=O)Nc2ccc3nc(C)cc(N)c3c2)cc1` were 10.5 µM and 4.25.
Consider `C[C@@]12C(=O)OC(=O)[C@@]1(C)C1CCC2O1`, for which the “AC50 for reduction of cell viability” value in assay [1] (setting [3]) is 5.9 µM. In assay [2] (top concentration 46.1 µM), this compound showed a viability of 21.1.
On to `CCN1CCN(Cc2ccc(-c3cc4c(N[C@H](C)c5ccccc5)ncnc4[nH]3)cc2)CC1`, for which the “AC50 for reduction of cell viability” value in assay [1] (setting [3]) turned out to be 0.372 µM. For the same compound, the viability in assay [2] (top concentration 46.1 µM) stood at 69.
Taken in the same sequence, the figures for `COC(=O)Nc1ccc(-c2nc(N3CCOCC3)c3cnn(C4CCN(C(=O)OC)CC4)c3n2)cc1` were 0.0264 µM and 13.8.
Consider `CC1(C)OC/2=C(\[C@H](NCC3=CC=CC=C3)[C@@H]1O)C(=O)C4=CC=CC=C4C2=O`, for which the “AC50 for reduction of cell viability” value in assay [1] (setting [3]) stood at 7.43 µM. Besides, the viability in assay [2] (top concentration 46.1 µM) amounted to 5.84.
Turning to `CCNC(=O)c1noc(-c2cc(C(C)C)c(O)cc2O)c1-c1ccc(CN2CCOCC2)cc1`, in assay [1] (setting [3]), the “AC50 for reduction of cell viability” value was 0.296 µM. For the same compound, the viability in assay [2] (top concentration 46.1 µM) was determined as 74.5.
Taken in the same sequence, the figures for `COC1=CC(c2cc3ccccc3[nH]2)=N/C1=C/c1[nH]c(C)cc1C` were 10.5 µM and 26.6.
For `O=C(/C=C/c1ccc(CN(CCO)CCc2c[nH]c3ccccc23)cc1)NO` the same measures were 5.9 µM and 44.9.
For `CC(/C=C/C(=O)NO)=C\[C@@H](C)C(=O)c1ccc(N(C)C)cc1` the same measures were 20.9 µM and 26.
For the compound `CNC(=O)c1ccc(Nc2cc(Nc3ccccc3[S+](=O)([O-])C(C)C)c3cc[nH]c3n2)nc1`, the “AC50 for reduction of cell viability” value in assay [1] (setting [3]) was determined as 18.7 µM. The viability in assay [2] (top concentration 46.1 µM) turned out to be 10.4.
Taken in the same sequence, the figures for `COc1ccc(-c2ccc3c(N4CCOC[C@@H]4C)nc(N4CCOC[C@@H]4C)nc3n2)cc1CO` were 0.0372 µM and 57.2.
As to `CCCCN1CCC(CNC(=O)c2c3n(c4ccccc24)CCCO3)CC1`, in assay [1] (setting [3]), the “AC50 for reduction of cell viability” value was 16.6 µM. In assay [2] (top concentration 46.1 µM), this compound showed a viability of 23.8.
As for `Cl.Cl.Fc1ccc(C(OCCN2CCN(CCCc3ccccc3)CC2)c2ccc(F)cc2)cc1`, the “AC50 for reduction of cell viability” value in assay [1] (library / dose series: NPC library, 8-point 1:5 dilution) was 11.9 µM. Also, in assay [2] (top concentration 46.1 µM), the viability is 67.6.
Take `COC(=O)Nc1ccc(-c2nc(N3CCOCC3)c3cnn(C4CCN(Cc5cccnc5)CC4)c3n2)cc1`: the “AC50 for reduction of cell viability” value in assay [1] (setting [3]) amounted to 1.05 µM. This compound also came in with a viability in assay [2] (top concentration 46.1 µM) of 23.5.
Taken in the same sequence, the figures for `CC[C@H](NC1=C2N=C[NH]C2=NC=N1)C/3=N/C4=C(C(=CC=C4)F)C(=O)N3C5=CC=CC=C5` were 3.72 µM and 75.5.
For `Cc1nc(Nc2ncc(C(=O)Nc3c(C)cccc3Cl)s2)cc(N2CCN(CCO)CC2)n1`, in assay [1] (setting [3]), the “AC50 for reduction of cell viability” value is 0.209 µM. The compound further returned a viability in assay [2] (top concentration 46.1 µM) of 58.6.
`C=CCNC1=C2C[C@@H](C)C[C@H](OC)[C@H](O)[C@@H](C)/C=C(\C)[C@H](OC(N)=O)[C@@H](OC)/C=C\C=C(/C)C(=O)NC(=CC1=O)C2=O`: the “AC50 for reduction of cell viability” value in assay [1] (setting [3]) is 4.18 µM. This compound also showed a viability in assay [2] (top concentration 46.1 µM) of 65.3.
Taken in the same sequence, the figures for `CC[S+](=O)([O-])Nc1ccc2c(c1)/C(=C(/Nc1ccc(CN3CCCCC3)cc1)c1ccccc1)C(=O)N2` were 1.32 µM and 50.
Consider `Cc1cc(Nc2cc(NC(=O)c3c(Cl)cccc3Cl)ccn2)nc(N)n1`, for which the “AC50 for reduction of cell viability” value in assay [1] (setting [3]) came to 20.9 µM. For the same compound, in assay [2] (top concentration 46.1 µM), the viability is 13.
Consider `NCC(=O)Nc1ccc(-n2nc(C(F)(F)F)cc2-c2ccc3c(ccc4ccccc43)c2)cc1`, for which the “AC50 for reduction of cell viability” value in assay [1] (setting [3]) was determined as 26.4 µM. Moreover, the viability in assay [2] (top concentration 46.1 µM) was 1.75.
For `CC(C)(C)c1cnc(CSc2cnc(NC(=O)C3CCNCC3)s2)o1` the same measures were 0.469 µM and 24.3.
For `CC(=O)Nc1nc(C)c(-c2ccc(Cl)c([S+](=O)([O-])NCCO)c2)s1` the same measures were 14.8 µM and 12.5.
Taken in the same sequence, the figures for `C1=C/COCc2cc(ccc2OCCN2CCCC2)Nc2nccc(n2)-c2cccc(c2)OCC/1` were 7.43 µM and 76.3.
Consider `Oc1cccc(-c2nc(N3CCOCC3)c3oc4ncccc4c3n2)c1`, for which the “AC50 for reduction of cell viability” value in assay [1] (setting [3]) was determined as 0.762 µM. The viability in assay [2] (top concentration 92.2 µM) is 28.3.
With `CC(C)C1=C(O)C=C(O)C(=C1)C/2=N/NC(=O)N2C3=CC4=C(C=C3)[N](C)C=C4`, the “AC50 for reduction of cell viability” value in assay [1] (setting [3]) turned out to be 0.148 µM. In assay [2] (top concentration 46.1 µM), this compound registered a viability of 61.4.
For `NC(=O)[C@@H](CCC(F)(F)F)N(Cc1ccc(-c2ncon2)cc1F)[S+](=O)([O-])c1ccc(Cl)cc1` the same measures were 0.132 µM and 76.2.
For `COC(=O)CCC1=C(C)C2=CC3=NC(=CC4=C(C)C(=C([NH]4)C=C\5N=C(C=C1[NH]2)\C(=C5C)CCC(O)=O)C=C)\C6=C\C=C(/[C@@H](C(=O)OC)[C@@]36C)C(=O)OC` the same measures were 0.662 µM and 32.5.
As to `COc1c(C)cnc(Cn2cnc3c(Cl)nc(N)nc32)c1C`, the “AC50 for reduction of cell viability” value in assay [1] (setting [3]) amounted to 2.96 µM. In assay [2] (top concentration 46.1 µM), this compound gave a viability of 61.4.
As for `COC1=C(OCCCN2CCOCC2)C=CC\3=C1/N=C(/NC(=O)C4=CN=C(N)N=C4)N5CC/N=C35`, the “AC50 for reduction of cell viability” value in assay [1] (setting [3]) amounted to 0.0645 µM. The compound further displayed a viability in assay [2] (top concentration 23 µM) of 43.9.
For the compound `Cc1nc(N)ncc1-c1nc(N2CCOCC2)c2sc(C(C)(C)O)cc2n1`, in assay [1] (setting [3]), the “AC50 for reduction of cell viability” value was 0.332 µM. Further, the viability in assay [2] (top concentration 46.1 µM) is 45.7.
For `c1nc2c(NC3CCCCC3)nc(Nc3ccc(N4CCOCC4)cc3)nc2[nH]1` the same measures were 18.7 µM and 31.3.
Taken in the same sequence, the figures for `CN(C)CCCN1c2ccccc2CCc2ccc(Cl)cc21` were 1.32 µM and 36.
Taken in the same sequence, the figures for `COC1=C2C[C@@H](C)C[C@H](OC)[C@H](O)[C@@H](C)/C=C(\C)[C@H](OC(N)=O)[C@@H](OC)/C=C/C=C(\C)C(=O)NC(=CC1=O)C2=O` were 4.69 µM and 23.9.
On to `Nc1nc(NCCNc2ncc(-n3ccnc3)c(-c3ccc(Cl)cc3Cl)n2)ccc1[N+](=O)[O-]`, for which the “AC50 for reduction of cell viability” value in assay [1] (setting [3]) was found to be 2.35 µM. The viability in assay [2] (top concentration 46.1 µM) was found to be 61.4.
For `CC1(C)Cc2c(sc(NC(=S)NC(=O)c3ccccc3)c2C(=O)O)CO1` the same measures were 26.4 µM and 25.5.
For the compound `C[C@H]([C@H]1C\C(=C(CO)/C(=O)O1)C)[C@H]2CC[C@H]3[C@@H]4C[C@H]5O[C@]56[C@@H](O)\C=C/C(=O)[C@]6(C)[C@H]4CC[C@]23C`, the “AC50 for reduction of cell viability” value in assay [1] (setting [3]) amounted to 14.8 µM. For the same compound, the viability in assay [2] (top concentration 46.1 µM) stood at 5.02.
Taken in the same sequence, the figures for `Cn1c2ccccc2c2c3c(c4c5ccccc5n(CCC#N)c4c21)CNC3=O` were 7.43 µM and 65.1.
Taken in the same sequence, the figures for `Cn1cc(CNCC2CCN(c3ncc(C(=O)NO)cn3)CC2)c2ccccc21` were 2.96 µM and 33.5.
Taken in the same sequence, the figures for `C/C(=N\NC(=S)N1CCC1)c1ccccn1` were 4.18 µM and 44.
For `Cc1ccc(C(N)=O)cc1Nc1nccc(-c2cn(C(C)C)c3cnccc23)n1`, the “AC50 for reduction of cell viability” value in assay [1] (setting [3]) turned out to be 8.33 µM. In assay [2] (top concentration 46.1 µM), this compound gave a viability of 30.
For `COc1cc(Nc2c(C#N)cnc3cc(OCCCN4CCN(C)CC4)c(OC)cc23)c(Cl)cc1Cl` the same measures were 2.35 µM and 74.7.
For `COC1=CC(=CC(=C1)C2=CC=C3N=CC\4=C(N(C(=O)\C=C4)C5=CC(=C(C=C5)N6CCNCC6)C(F)(F)F)C3=C2)OC` the same measures were 16.6 µM and 28.5.
For `COc1ccc(-c2ccc3c(N4CCOCC4)nc(N4C[C@@H](C)O[C@@H](C)C4)nc3n2)cc1CO` the same measures were 1.87 µM and 62.3.
For `NC(=O)c1ccc2[nH]c(-c3ccc(Oc4ccc(Cl)cc4)cc3)nc2c1`, the “AC50 for reduction of cell viability” value in assay [1] (setting [3]) was determined as 2.64 µM. This compound also yielded a viability in assay [2] (top concentration 46.1 µM) of 79.5.
In the case of `CCC[C@H](NC(=O)/C(C#N)=C/c1cccc(Br)n1)c1ccccc1`, the “AC50 for reduction of cell viability” value in assay [1] (setting [3]) came out at 16.6 µM. Besides, the viability in assay [2] (top concentration 46.1 µM) was determined as 19.1.
